From patent publication US20240376056A1, “PHENYL ACETAMIDE BASED IL-17A MODULATORS AND USES THEREOF” (DiCE Alpha, Inc., priority 2021, published 2024)

Target: T1, IL-17A/A (Homo sapiens, UniProt Q16552)
T1 construct: purchased Genscript Z03228
T1 sequence (Q16552 24-155): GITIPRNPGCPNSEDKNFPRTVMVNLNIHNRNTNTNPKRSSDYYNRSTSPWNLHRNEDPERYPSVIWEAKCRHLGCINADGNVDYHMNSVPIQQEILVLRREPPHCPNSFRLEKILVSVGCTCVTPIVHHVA
Test: HEK-Blue IL-17A/A inhibition assay (SEAP reporter)
Format: cell-based
Settings: HEK-Blue cells (HEK 293 expressing IL-17RA, IL-17RC, Act1); IL-17A/A stimulation; 20 hours; SEAP read at A630; 4-parameter fit
Description: The HEK-Blue #NC108637 […]. Cells were grown and prepared for assays according to the manufacturer's instructions. This cell line consists of HEK 293 cells that were designed to expressed IL-17R^A, IL-17RC, and the ActI adapter molecule, the combination of which. when stimulated by IL-17A/A activates a NFtcB promoter and drives expression of a recombinant Secreted Alkaline Phosphatase (SEAP) geneprotein. Media from the cells is then added to a development reagent (Quanti-Blue Substrate, Fisher #NC971 1613), and read at A630.
Compounds were titrated in DMSO. with a top final compound concentration of 10 uM, 1 uM, or 0.3 uM, and added to the cells immediately before adding IL-17A/A (Genscript #Z03228). The cells, compound, and IL-17A/A were then incubated for 20 hours before media was removed for SEAP analysis. The resulting inhibition curve was then analyzed using Graphpad Prism 7.0, and IC50 values were determined using a 4-parameter nonlinear fit. DMSO was added to a universal final concentration of 0.1% to optimze background.

**Q.** Which IC50 does the source give for Cc1cc(NC(=O)[C@@H](NC(=O)c2nonc2C2CC2)C(C2CC2)C2CC2)c(F)cc1C(C)C(=O)NCC(F)(F)F (stereo partly shown) [Compound 251] here?
**A.** Its IC50 is under 100 nM.

**Q.** For CC(C)n1nccc1C(=O)N[C@H](C(=O)Nc1ccc([C@H](C)C(=O)N(C)CC(F)(F)F)cc1F)C1CCC(F)(F)CC1 [Compound 51, N-((S)-1-(4,4-difluorocyclohexyl)-2-((2-fluoro-4-((S)-1-(methyl(2,2,2-trifluoroethyl)amino)-1-oxopropan-2-yl)phenyl)amino)-2-oxoethyl)-1-isopropyl-1H-pyrazole-5-carboxamide], which IC50 is on record?
**A.** Its IC50 is 100 to 1000 nM.

**Q.** How did the IC50 turn out when CC(C(=O)N(CC(N)=O)CC(F)(F)F)c1ccc(NC(=O)[C@@H](NC(=O)c2ccnn2C(C)C)C(C2CC2)C2CC2)c(F)c1 (single isomer, unassigned) [Compound 137] was run?
**A.** The IC50 was under 100 nM.

**Q.** How did the IC50 turn out when CCC(C1CCC1)[C@H](NC(=O)c1ccnn1CC)C(=O)Nc1ccc([C@H](C)C(=O)NCC(F)(F)F)cc1F (single isomer, unassigned) [Compound 86] was run?
**A.** The IC50 was 100 to 1000 nM.

**Q.** How did the IC50 turn out when CCn1ncc(F)c1C(=O)N[C@H](C(=O)Nc1ccc([C@H](C)C(=O)N(C)CC(F)(F)F)cc1F)C(C1CC1)C1CC1 [Compound 79, N-((S)-1,1-dicyclopropyl-3-((2-fluoro-4-((S)-1-(methyl(2,2,2-trifluoroethyl)amino)-1-oxopropan-2-yl)phenyl)amino)-3-oxopropan-2-yl)-1-ethyl-4-fluoro-1H-pyrazole-5-carboxamide] was run?
**A.** The IC50 was 100 to 1000 nM.

**Q.** CCn1nccc1C(=O)N[C@H](C(=O)Nc1c(F)cc(C(C)C(=O)NCC(F)(F)F)cc1F)C(C1CC1)C1CC1 (single isomer, unassigned) [Compound 171] was tested. Which IC50 did it give?
**A.** Its IC50 is 100 to 1000 nM.

**Q.** For CNc1cc(NC(=O)[C@@H](NC(=O)c2ccnn2C(C)C)C(C2CC2)C2CC2)c(F)cc1C(C)C(=O)NCC(F)(F)F (stereo partly shown) [Compound 196], which IC50 is on record?
**A.** The IC50 was over 1000 nM.

**Q.** For CCn1nccc1C(=O)N[C@H](C(=O)Nc1ccc(C(C)(C)C(=O)NCC(F)(F)F)cc1F)C1CCCCCC1 [Compound 7, (S)-N-(1-cycloheptyl-2-((2-fluoro-4-(2-methyl-1-oxo-1-((2,2,2-trifluoroethyl)amino)propan-2-yl)phenyl)amino)-2-oxoethyl)-1-ethyl-1H-pyrazole-5-carboxamide], which IC50 is on record?
**A.** Its IC50 is 100 to 1000 nM.

**Q.** For CC(C)n1nccc1C(=O)N[C@H](C(=O)Nc1ccc(C(CN2CCOCC2)C(=O)NCC(F)(F)F)cc1F)C(C1CC1)C1CC1 (single isomer, unassigned) [Compound 131], which IC50 is on record?
**A.** The IC50 was 100 to 1000 nM.

**Q.** Which IC50 does the source give for COc1cc(NC(=O)[C@@H](NC(=O)c2ccnn2C(C)C)C(C2CC2)C2CC2)c(F)cc1C(C)C(=O)N1CC(O)CC1C(F)(F)F (single isomer, unassigned) [Compound 183] here?
**A.** The IC50 was over 1000 nM.

**Q.** With CC[C@@H](c1ccc(F)cc1)[C@H](NC(=O)c1ccnn1CC)C(=O)Nc1cc(C)c(C(C)C(=O)N(C)CC(F)(F)F)cc1F (stereo partly shown) [Compound 203] as the compound, how does the IC50 read?
**A.** Its IC50 is under 100 nM.

**Q.** With C[C@H](C(=O)NCC(F)(F)F)c1ccc(NC(=O)[C@@H](NC(=O)c2ccnn2CCN2CC(F)(F)C2)C(C2CC2)C2CC2)c(F)c1 [Compound 94, N-((S)-1.1-dicyclopropyl-3-((2-fluoro-4-((S)-1-oxo-1-((2,2,2-trifluoroethyl)amino)propan-2-yl)phenyl)amino)-3-oxopropan-2-yl)-1-(2-(3,3-difluoroazetidin-1-yl)ethyl)-1H-pyrazole-5-carboxamide] as the compound, how does the IC50 read?
**A.** The IC50 was 100 to 1000 nM.

**Q.** How did the IC50 turn out when C[C@H](C(=O)NCC(F)(F)F)c1ccc(NC(=O)[C@@H](NC(=O)c2ccnn2CCN2CCOCC2)C(C2CC2)C2CC2)c(F)c1 [Compound 89, N-((S)-1,1-dicyclopropyl-3-((2-fluoro-4-((S)-1-oxo-1-((2,2,2-trifluoroethyl)amino)propan-2-yl)phenyl)amino)-3-oxopropan-2-yl)-1-(2-morpholinoethyl)-1H-pyrazole-5-carboxamide] was run?
**A.** The IC50 was 100 to 1000 nM.

**Q.** CC(C(=O)N(CC(N)=O)CC(F)(F)F)c1ccc(NC(=O)[C@@H](NC(=O)c2ccnn2C(C)C)C(C2CC2)C2CC2)c(F)c1 (single isomer, unassigned) [Compound 138] was tested. Which IC50 did it give?
**A.** Its IC50 is over 1000 nM.

**Q.** Which IC50 does the source give for CCn1nccc1C(=O)N[C@H](C(=O)Nc1cc(C)c(C(C)C(=O)N(C)CC(F)(F)F)cc1F)[C@H]1CC[C@H](C)CC1 (stereo partly shown) [Compound 202] here?
**A.** The IC50 was under 100 nM.

**Q.** With CCn1nccc1C(=O)N[C@H](C(=O)Nc1ccc(CC(=O)N(C)CC(F)(F)F)cc1F)C1CCCCCC1 [Compound 1, (S)-N-(1-cycloheptyl-2-((2-fluoro-4-(2-(methyl(2,2,2-trifluoroethyl)amino)-2-oxoethyl)phenyl)amino)-2-oxoethyl)-1-ethyl-1H-pyrazole-5-carboxamide] as the compound, how does the IC50 read?
**A.** Its IC50 is 100 to 1000 nM.

**Q.** With CC(C)n1nccc1C(=O)N[C@H](C(=O)Nc1ccc([C@H](C)C(=O)N(CCN)CC(F)(F)F)cc1F)C(C1CC1)C1CC1 [Compound 139, N-((S)-1-((4-((S)-1-((2-aminoethyl)(2,2,2-trifluoroethyl)amino)-1-oxopropan-2-yl)-2-fluorophenyl)amino)-3,3-dicyclopropyl-1-oxopropan-2-yl)-1-isopropyl-1H-pyrazole-5-carboxamide] as the compound, how does the IC50 read?
**A.** Its IC50 is 100 to 1000 nM.

**Q.** Which IC50 does the source give for CC(C(=O)NCC(F)(F)F)c1cc(F)c(NC(=O)[C@@H](NC(=O)c2ccnn2C(C)C)C(C2CC2)C2CC2)cc1N1CCCC1 (stereo partly drawn) [Compound 160, N-((2S)-1,1-dicyclopropyl-3-((2-fluoro-4-(1-oxo-1-((2,2,2-trifluoroethyl)amino)propan-2-yl)-5-(pyrrolidin-1-yl)phenyl)ammno)-3-oxopropan-2-yl)-1-isopropyl-1H-pyrazole-5-carboxamide] here?
**A.** The IC50 was under 100 nM.

**Q.** With CCn1nccc1C(=O)N[C@H](C(=O)Nc1ccc([C@H](C)C(=O)N(C)CC(F)(F)F)cc1F)C1CCCCCC1 (single isomer, unassigned) [Compound 4] as the compound, how does the IC50 read?
**A.** The IC50 was under 100 nM.

**Q.** Which IC50 does the source give for CC(C)n1nccc1C(=O)N[C@H](C(=O)Nc1ccc(C(CO)C(=O)NCC(F)(F)F)cc1F)C(C1CC1)C1CC1 (stereo partly shown) [Compound 193] here?
**A.** The IC50 was over 1000 nM.

**Q.** CC(C(=O)NCC(F)(F)F)c1cc(F)c(NC(=O)[C@@H](NC(=O)c2ccnn2C(C)C)C(C2CC2)C2CC2)cc1Br (mixture of isomers) [Compound 113, N-((2S)-1-((5-bromo-2-fluoro-4-(1-oxo-1-((2,2,2-trifluoroethyl)amino)propan-2-yl)phenyl)amino)-3,3-dicyclopropyl-1-oxopropan-2-yl)-1-isopropyl-1H-pyrazole-5-carboxamide] was tested. Which IC50 did it give?
**A.** Its IC50 is 100 to 1000 nM.

**Q.** Which IC50 does the source give for CC(C)n1nccc1C(=O)N[C@H](C(=O)Nc1ccc([C@H](C)C(=O)NC(CNC(=O)OC(C)(C)C)C(F)(F)F)cc1F)C(C1CC1)C1CC1 (stereo partly shown) [Compound 154] here?
**A.** The IC50 was 100 to 1000 nM.

**Q.** With CC(C)c1nocc1C(=O)N[C@H](C(=O)Nc1cc(C(F)(F)F)c(C(C)C(=O)NCC(F)(F)F)cc1F)C(C1CC1)C1CC1 (stereo partly shown) [Compound 229] as the compound, how does the IC50 read?
**A.** Its IC50 is over 1000 nM.

**Q.** How did the IC50 turn out when CC(C)n1nccc1C(=O)N[C@H](C(=O)Nc1ccc([C@H](C)C(=O)N2CCC(F)(F)C2)cc1F)C(C1CC1)C1CC1 [Compound 30] was run?
**A.** The IC50 was 100 to 1000 nM.

**Q.** With CC(=O)NC(C(=O)NCC(F)(F)F)c1ccc(NC(=O)[C@@H](NC(=O)c2ccnn2C(C)C)C(C2CC2)C2CC2)c(F)c1 (single isomer, unassigned) [Compound 167] as the compound, how does the IC50 read?
**A.** Its IC50 is 100 to 1000 nM.

**Q.** With CC(C)n1nccc1C(=O)N[C@H](C(=O)Nc1ccc([C@H](C)C(=O)N2C(C(N)=O)CCC2C(F)(F)F)cc1F)C(C1CC1)C1CC1 (single isomer, unassigned) [Compound 147] as the compound, how does the IC50 read?
**A.** The IC50 was over 1000 nM.

**Q.** CC(C)n1nccc1C(=O)N[C@H](C(=O)Nc1ccc([C@H](C)C(=O)N2CCCCC2C(F)(F)F)cc1F)C(C1CC1)C1CC1 (single isomer, unassigned) [Compound 20] was tested. Which IC50 did it give?
**A.** The IC50 was 100 to 1000 nM.

**Q.** How did the IC50 turn out when CC(C)n1nccc1C(=O)N[C@H](C(=O)Nc1ccc([C@H](C)C(=O)N2CC(F)(CO)C2)cc1F)C(C1CC1)C1CC1 [Compound 33, N-((S)-1,1-dicyclopropyl-3-((2-fluoro-4-((S)-1-(3-fluoro-3-(hydroxymethyl)azetidin-1-yl)-1-oxopropan-2-yl)phenyl)amino)-3-oxopropan-2-yl)-1-isopropyl-1H-pyrazole-5-carboxamide] was run?
**A.** The IC50 was over 1000 nM.

**Q.** With CCc1nocc1C(=O)N[C@H](C(=O)Nc1ccc([C@H](C)C(=O)N(C)CC(F)(F)F)cc1F)C(C1CC1)C1CC1 [Compound 80, N-((S)-1,1-dicyclopropyl-3-((2-fluoro-4-((S)-1-(methyl(2,2,2-trifluoroethyl)amino)-1-oxopropan-2-yl)phenyl)amino)-3-oxopropan-2-yl)-3-ethylisoxazole-4-carboxamide] as the compound, how does the IC50 read?
**A.** Its IC50 is under 100 nM.

**Q.** How did the IC50 turn out when CC(C(=O)NCC(F)(F)F)c1cc(F)c(NC(=O)[C@@H](NC(=O)c2ccnn2C(C)C)C(C2CC2)C2CC2)cc1OC(F)(F)F (single isomer, unassigned) [Compound 185] was run?
**A.** The IC50 was under 100 nM.

**Q.** With CC(C)C(C(=O)NCC(F)(F)F)c1ccc(NC(=O)[C@@H](NC(=O)c2ccnn2C(C)C)C(C2CC2)C2CC2)c(F)c1 (single isomer, unassigned) [Compound 128] as the compound, how does the IC50 read?
**A.** Its IC50 is 100 to 1000 nM.

**Q.** For CC(C(=O)N(C)CC(F)(F)F)c1cc(F)c(NC(=O)[C@@H](NC(=O)c2ccnn2C(C)C)C(C2CC2)C2CC2)cc1OC(F)(F)F (stereo partly shown) [Compound 257], which IC50 is on record?
**A.** Its IC50 is under 100 nM.

**Q.** With CC(C(=O)NCC(F)(F)F)c1cc(F)c(NC(=O)[C@@H](NC(=O)c2ccnn2C(C)C)C(C2CC2)C2CC2)cc1CS(C)(=N)=O (stereo partly shown) [Compound 260] as the compound, how does the IC50 read?
**A.** The IC50 was 100 to 1000 nM.

**Q.** With CCn1nccc1C(=O)N[C@H](C(=O)Nc1cc(C)c(C(C)C(=O)NCC(F)(F)F)cc1F)[C@H]1CC[C@H](C)CC1 (stereo partly shown) [Compound 201] as the compound, how does the IC50 read?
**A.** Its IC50 is over 1000 nM.
